From patent EP4722201A1, “3-PHENYLISOXAZOLINE-5-CARBOXAMIDE COMPOUND, AND PREPARATION METHOD THEREFOR, HERBICIDAL COMPOSITION THEREOF AND USE THEREOF” (Jiangsu Flag Chemical Industry Co., Ltd, priority 2023, dated 2024)

Columns and labels:
Test in all cases: Indoor herbicide activity determination, Seed Treatment; pre-emergence (soil spray)
Assay type in all cases: in vivo
Aegilops tauschii = conditions: read-out: Herbicidal activities (inhibition rate) Aegilops tauschii; for inhibition at 120 g/ha: 120 g a.i./ha; for inhibition at 60 g/ha: 60 g a.i./ha
Excerpt: (§1) The testing method for herbicide activity of the compound of the present invention was as follows:
(§2) Seed Treatment; pre-emergence: quantitative seeds of gramineous weeds (Echinochloa crusgalli, Eleusine indica, Digitaria sanguinalis, Alopecurus japonicus, Beckmannia syzigachne, Leptochloa chinensis, Polypogon fugax, Alopecurus aequalis, Lolium multiflorum, Poa annua, Aegilops tauschii, Avena fatua, Alopecurus myosuroides, Alopecurus japonicus and Alopecurus aequalis), broad-leaved weeds (Eclipta prostrata, Amaranthus retroflexus, Rorippa indica, Malachium aquaticum, Veronica polita, Conyza canadensis, Sesbania cannabina, Sagittariatrifolia and Schoenoplectiella juncoides), and Cyperus iria were sown in plastic pots having a diameter of 7 cm and holes at the bottom and filled with nutrient soil (sandy soil, pH 6.1, organic matter 1%) respectively, the seeds were covered with an appropriate amount of soil after being sown, then the soil was wetted with water from the bottom, the seeds were cultured in a constant-temperature illuminated culture room for 24 h, and the soil was sprayed by using a 3WP-2000 traveling spray tower produced by the Nanjing Institute of Agricultural Mechanization of the Ministry of Agriculture, where a rotational speed of a main shaft was 96 mm/r, a spray height was 300 mm, an effective spraying range of a nozzle was 350 mm, a spray area was 0.35 m^2, and a flow rate at the nozzle was 390 mL/min.
(§3) Post-emergence: an appropriate quantity of seeds of gramineous weeds (Echinochloa crusgalli, Eleusine indica, Digitaria sanguinalis, Alopecurus japonicus, Beckmannia syzigachne, Leptochloa chinensis, Polypogon fugax, Alopecurus aequalis, Lolium multiflorum, Poa annua, Aegilops tauschii, Avena fatua, Alopecurus myosuroides, Alopecurus japonicus and Alopecurus aequalis), broad-leaved weeds (Eclipta prostrata, Amaranthus retroflexus, Rorippa indica, Malachium aquaticum, Veronica polita, Conyza canadensis, Sesbania cannabina, Sagittariatrifolia and Schoenoplectiella juncoides), and Cyperus iria were sown in plastic pots having a diameter of 7 cm and holes at the bottom and filled with nutrient soil (sandy soil, pH 6.1, organic matter 1%) respectively, the seeds were covered with an appropriate amount of soil after being sown, then the soil was wetted with water from the bottom, the seeds were cultured in a constant-temperature illuminated culture room until a 2-4 leaf stage, and stems and leaves underwent spray treatment. After the treatment, the test materials were placed in a laboratory and cultured in the constant-temperature illuminated culture room after the liquid was naturally dry in the shade, and results were determined 21 days later. Inhibition rate of fresh weight % = (1−(fresh weight of treated plants)/(fresh weight of control plants)) × 100% [formula]

Alopecurus japonicus = test system: Alopecurus japonicus
Excerpt: as §1, §2, §3

Alopecurus myosuroides = test system: Alopecurus myosuroides
Excerpt: as §1, §2, §3

Cyperus iria = conditions: read-out: Herbicidal activities (inhibition rate) Cyperus iria; for inhibition at 120 g/ha: 120 g a.i./ha; for inhibition at 60 g/ha: 60 g a.i./ha
Excerpt: as §1, §2, §3

Eclipta prostrata = conditions: read-out: Herbicidal activities (inhibition rate) Eclipta prostrata; for inhibition at 120 g/ha: 120 g a.i./ha; for inhibition at 60 g/ha: 60 g a.i./ha
Excerpt: as §1, §2, §3

Eleusine indica = test system: Eleusine indica
Excerpt: as §1, §2, §3

Leptochloa chinensis = test system: Leptochloa chinensis
Excerpt: as §1, §2, §3

Lolium multiflorum = test system: Lolium multiflorum
Excerpt: as §1, §2, §3

SMILES	inhibition at 120 g/ha (Aegilops tauschii)	Herbicidal activities, Alopecurus japonicus (inhibition rate class) (Alopecurus japonicus; Dosage 240 g a.i./ha)	Herbicidal activities, Alopecurus myosuroides (inhibition rate class) (Alopecurus myosuroides; Dosage 240 g a.i./ha)	inhibition at 120 g/ha (Cyperus iria)	inhibition at 120 g/ha (Eclipta prostrata)	Herbicidal activities, Eleusine indica (inhibition rate class) (Eleusine indica; Dosage 240 g a.i./ha)	Herbicidal activities, Leptochloa chinensis (inhibition rate class) (Leptochloa chinensis; Dosage 240 g a.i./ha)	Herbicidal activities, Lolium multiflorum (inhibition rate class) (Lolium multiflorum; Dosage 240 g a.i./ha)	inhibition at 60 g/ha (Aegilops tauschii)	Herbicidal activities, Alopecurus japonicus (inhibition rate class) (Alopecurus japonicus; Dosage 120 g a.i./ha)	Herbicidal activities, Alopecurus myosuroides (inhibition rate class) (Alopecurus myosuroides; Dosage 120 g a.i./ha)	inhibition at 60 g/ha (Cyperus iria)	inhibition at 60 g/ha (Eclipta prostrata)	Herbicidal activities, Eleusine indica (inhibition rate class) (Eleusine indica; Dosage 120 g a.i./ha)	Herbicidal activities, Leptochloa chinensis (inhibition rate class) (Leptochloa chinensis; Dosage 120 g a.i./ha)	Herbicidal activities, Lolium multiflorum (inhibition rate class) (Lolium multiflorum; Dosage 120 g a.i./ha)
C=CC1(C(=O)N[C@H]2C[C@@H](C(=O)OCC[S+](C)[O-])C2)CC(c2cc(F)cc(F)c2)=NO1 (stereo partly shown) [I-9]	80 to 100%	A (A indicates that the inhibition rate was greater than or equal to 80% to 100%)	A (A indicates that the inhibition rate was greater than or equal to 80% to 100%)	80 to 100%	60 to 80%	A (A indicates that the inhibition rate was greater than or equal to 80% to 100%)	A (A indicates that the inhibition rate was greater than or equal to 80% to 100%)	A (A indicates that the inhibition rate was greater than or equal to 80% to 100%)	–	–	–	–	–	–	–	–
C=CC1(C(=O)N[C@H]2C[C@@H](C(=O)OCCS(C)(=O)=O)C2)CC(c2cc(F)cc(F)c2)=NO1 (stereo partly shown) [I-10]	80 to 100%	A (A indicates that the inhibition rate was greater than or equal to 80% to 100%)	A (A indicates that the inhibition rate was greater than or equal to 80% to 100%)	80 to 100%	60 to 80%	A (A indicates that the inhibition rate was greater than or equal to 80% to 100%)	A (A indicates that the inhibition rate was greater than or equal to 80% to 100%)	A (A indicates that the inhibition rate was greater than or equal to 80% to 100%)	–	–	–	–	–	–	–	–
C=C[C@]1(C(=O)N[C@H]2C[C@@H](C(=O)NOC)C2)CC(c2cc(F)cc(F)c2)=NO1 [I-23]	–	–	–	–	–	–	–	–	80 to 100%	A (A indicates that the inhibition rate was greater than or equal to 80% to 100%)	A (A indicates that the inhibition rate was greater than or equal to 80% to 100%)	80 to 100%	60 to 80%	A (A indicates that the inhibition rate was greater than or equal to 80% to 100%)	A (A indicates that the inhibition rate was greater than or equal to 80% to 100%)	A (A indicates that the inhibition rate was greater than or equal to 80% to 100%)
C=C[C@]1(C(=O)N[C@H]2C[C@@H](C(=O)OCCCCC)C2)CC(c2cc(F)cc(Cl)c2)=NO1 [I-31]	–	–	–	–	–	–	–	–	60 to 80%	–	A (A indicates that the inhibition rate was greater than or equal to 80% to 100%)	60 to 80%	80 to 100%	A (A indicates that the inhibition rate was greater than or equal to 80% to 100%)	A (A indicates that the inhibition rate was greater than or equal to 80% to 100%)	–
C=C[C@]1(C(=O)N[C@H]2C[C@@H](C(=O)OCC=CC)C2)CC(c2cc(F)cc(Cl)c2)=NO1 [I-32]	–	–	–	–	–	–	–	–	60 to 80%	B (B indicates that the inhibition rate was greater than or equal to 60% to less than 80%)	A (A indicates that the inhibition rate was greater than or equal to 80% to 100%)	60 to 80%	80 to 100%	A (A indicates that the inhibition rate was greater than or equal to 80% to 100%)	A (A indicates that the inhibition rate was greater than or equal to 80% to 100%)	B (B indicates that the inhibition rate was greater than or equal to 60% to less than 80%)
C=C[C@]1(C(=O)N[C@H]2C[C@@H](C(=O)O[C@H](C)COC)C2)CC(c2cc(F)cc(Cl)c2)=NO1 [I-33]	–	–	–	–	–	–	–	–	60 to 80%	A (A indicates that the inhibition rate was greater than or equal to 80% to 100%)	A (A indicates that the inhibition rate was greater than or equal to 80% to 100%)	60 to 80%	80 to 100%	A (A indicates that the inhibition rate was greater than or equal to 80% to 100%)	A (A indicates that the inhibition rate was greater than or equal to 80% to 100%)	A (A indicates that the inhibition rate was greater than or equal to 80% to 100%)
C=C[C@]1(C(=O)N[C@H]2C[C@@H](C(=O)O[C@@H](C)COC)C2)CC(c2cc(F)cc(Cl)c2)=NO1 [I-34]	–	–	–	–	–	–	–	–	60 to 80%	B (B indicates that the inhibition rate was greater than or equal to 60% to less than 80%)	A (A indicates that the inhibition rate was greater than or equal to 80% to 100%)	60 to 80%	80 to 100%	A (A indicates that the inhibition rate was greater than or equal to 80% to 100%)	A (A indicates that the inhibition rate was greater than or equal to 80% to 100%)	B (B indicates that the inhibition rate was greater than or equal to 60% to less than 80%)
C=C[C@]1(C(=O)N[C@H]2C[C@@H](C(=O)OCC3CC3)C2)CC(c2cc(F)cc(Cl)c2)=NO1 [I-35]	–	–	–	–	–	–	–	–	60 to 80%	A (A indicates that the inhibition rate was greater than or equal to 80% to 100%)	A (A indicates that the inhibition rate was greater than or equal to 80% to 100%)	60 to 80%	60 to 80%	A (A indicates that the inhibition rate was greater than or equal to 80% to 100%)	A (A indicates that the inhibition rate was greater than or equal to 80% to 100%)	A (A indicates that the inhibition rate was greater than or equal to 80% to 100%)
C=C[C@]1(C(=O)N[C@H]2C[C@@H](C(=O)OCC(F)(F)C(F)F)C2)CC(c2cc(F)cc(OC(F)(F)F)c2)=NO1 [I-64]	–	–	–	–	–	–	–	–	60 to 80%	A (A indicates that the inhibition rate was greater than or equal to 80% to 100%)	A (A indicates that the inhibition rate was greater than or equal to 80% to 100%)	–	80 to 100%	B (B indicates that the inhibition rate was greater than or equal to 60% to less than 80%)	A (A indicates that the inhibition rate was greater than or equal to 80% to 100%)	A (A indicates that the inhibition rate was greater than or equal to 80% to 100%)
C=C[C@]1(C(=O)N[C@H]2C[C@@H](C(=O)OCCOCC)C2)CC(c2cc(F)cc(OC(F)(F)F)c2)=NO1 [I-65]	–	–	–	–	–	–	–	–	80 to 100%	A (A indicates that the inhibition rate was greater than or equal to 80% to 100%)	A (A indicates that the inhibition rate was greater than or equal to 80% to 100%)	–	60 to 80%	B (B indicates that the inhibition rate was greater than or equal to 60% to less than 80%)	A (A indicates that the inhibition rate was greater than or equal to 80% to 100%)	A (A indicates that the inhibition rate was greater than or equal to 80% to 100%)
